Assay results: paper PMC7049299, “UGT74AF3 enzymes specifically catalyze the glucosylation of 4-hydroxy-2,5-dimethylfuran-3(2H)-one, an important volatile compound in Camellia sinensis” (Horticulture Research, 2020)

What was measured:
[1] = biological target: T1, UGT74AF3b (Camellia sinensis, UniProt A0A4S4DWR1); test: glucosyltransferase kinetics (UDP-Glo assay / LC-MS; readout for kinetics not told); type: biochemical; settings: optimized conditions (optimum pH 8.5, 30 °C); sugar donor not stated for kinetics, presumably UDP-glucose
T1 construct: gene TEA_014443; full-length, N-terminal GST tag (pGEX-4T-1), E. coli BL21(DE3) pLysS, GST-resin purified; Ala at residue 456
Source text: glucosyltransferase kinetics (UDP-Glo assay / LC-MS; readout for kinetics not told) on UGT74AF3b

[2] = biological target: T1, UGT74AF3b; test: relative glycosyltransferase activity; type: biochemical; settings: UDP-Glc, UDP-Gal or UDP-GA as sugar donor

T1 sequence (A0A4S4DWR1 entry or part of it): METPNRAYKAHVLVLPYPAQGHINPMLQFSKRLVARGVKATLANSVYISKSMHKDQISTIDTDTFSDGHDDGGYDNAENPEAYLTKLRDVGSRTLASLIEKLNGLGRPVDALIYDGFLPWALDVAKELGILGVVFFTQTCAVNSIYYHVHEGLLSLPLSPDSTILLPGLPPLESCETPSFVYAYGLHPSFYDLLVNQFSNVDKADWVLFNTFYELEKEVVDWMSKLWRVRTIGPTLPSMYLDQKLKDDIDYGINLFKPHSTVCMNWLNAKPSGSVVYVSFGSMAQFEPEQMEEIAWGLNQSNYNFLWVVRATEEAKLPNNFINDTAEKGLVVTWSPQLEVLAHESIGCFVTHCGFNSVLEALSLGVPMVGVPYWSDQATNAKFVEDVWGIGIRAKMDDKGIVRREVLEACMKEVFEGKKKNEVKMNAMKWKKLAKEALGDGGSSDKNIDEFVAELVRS

For `CC1=C(O)C(=O)C(C)O1` (centres unmarked) [HDMF, 4-Hydroxy-2,5-dimethylfuran-3(2H)-one], the Km [1] was 5.14 ± 1.58 µM and the relative enzymatic activity [2] was “The A456V mutant exhibited enhanced glucosylation activity toward HDMF, EHMF, and HMF”.
